Reference: US20110183336A1, “Method to Predict Responsiveness of Breast Cancer to Polyamine-Type Chemotherapy” (THE REGENTS OF THE UNIVERSITY OF CALIFORNIA, priority 2007, published 2011)

What was measured:
Format in all cases: cell-based
[1] = test system: A549; assay: MTT assay, percent cell survival; settings: Homo sapiens, A549, 144 h, six days after drug treatment, read-out: ID50(μM) A549
Description: Human brain cancer cell line U251MG-NCI was grown in Dulbecco's Modified Eagle's Medium supplemented with 10% FBS. […] Human prostate cancer cell line PC3 was grown in Dulbecco's Modified Eagles Medium supplemented with 5% FBS. […] The cell cultures were maintained at 37° C. in 5% CO2/95% humidified air.
(§1) Here, a conventional MTT assay was used to evaluate percent cell survival. Exponentially growing monolayer cells were plated in 96-well plates at a density of 500 cells per well and allowed to grow for 24 hours. Serial dilutions of the drugs were added to the wells. Six days after drug treatment, 25 μl of MTT solution (5 mg/ml) was added to each well and incubated for 4 hours at 37° C. Then 100 μl of lysis buffer (20% sodium dodecyl sulfate, 50% DMF, and 0.8% acetic acid, pH 4.7) was added to each well and incubated for an additional 22 hours. A microplate reader (“EMAX”-brand, Molecular Devices, Sunnyvale, Calif.) set at 570 nm was used to determine the optical density of the cultures. Results are expressed as a ratio of the optical density in drug-treated wells to the optical density in wells treated with vehicle only.
(§2) The ID50 is the drug concentration that killed 50% of the cultured cells.

[2] = test system: Human breast cancer cell line MCF7; assay: Colony formation (plating efficiency) standard protocol; settings: MCF7, MCF7, 4 hours exposure, colony formation day 15-20, read-out: ED50 (the source's name)
Description: (§3) Cell lines and media: Human breast cancer cell line MCF7 was grown in Richter's Improved Modified Eagle's Medium supplemented with 10% fetal bovine serum (FBS) and 2.2 g/L sodium bicarbonate. Human brain cancer cell line U251MG-NCI was grown in Dulbecco's Modified Eagle's Medium supplemented with 10% FBS. Human lung cancer cell line A549 was grown in Ham's F-12K medium (Fisher Scientific, Itasca, Ill.), supplemented with 10% FBS and 2 mM L-glutamine. Human colon cancer cell line HT29 was cultured in McCoy's 5A medium (Gibco, BRL, Gaithersburg, Md.), supplemented with 10% FBS. Human prostate cancer cell line PC3 was grown in Dulbecco's Modified Eagles Medium supplemented with 5% FBS. The A549 and MCF7 cell lines were cultured in 100 units/mL penicillin and 100 μg/mL streptomycin. HT29 and U251MG cell lines were grown in 50 μg/mL gentamycin. PC3 cell lines were maintained in 1% antibiotic-antimycotic solution (Sigma, St. Louis, Mo.). The cell cultures were maintained at 37° C. in 5% CO2/95% humidified air. All cell cultures are available from the American Type Culture Collection, Rockville, Md.
(§4) A standardized protocol was used to evaluate these test cultures:
(§5) Day 1: Ten standard culture flasks for each drug to be tested were plated with 5×10^5 cells of a given type in 5 mL of media and allowed to incubate for 16-24 hours at 37° C.
(§6) Day 2: Fresh stocks of the compounds to be evaluated are prepared. For each drug, two of the ten culture flasks prepared on Day 1 are used as controls. The control flasks are treated with solvent only. Four flasks for each compound are then treated with serially-diluted concentrations of the compound. The remaining flasks are left untouched. The cells are incubated for 4 hours at 37° C.
(§7) After 4 hours the control flasks are counted (2 counts for each flask) and the cells per mL calculated based on the average of the control counts. The cells are then re-plated into six 60 mm dishes for each flask from dilutions based on the cells/mL of the control. (In the various test runs, cell concentrations ranged from approximately 50 to approximately 800 cells per mL.)
(§8) Day 15-20: The cells are monitored for colony formation. When visible, the cells are stained with 0.5% crystal violet (in 95% EtOH) and counted. The plating efficiency for each dish is then calculated. The plating efficiencies of the six dishes for each flask are averaged and the standard deviation is calculated. The fraction of cell survival at each concentration is determined based on the controls.

[3] = test system: human brain cancer cell line U251MG-NCI; assay: as above
Description: as §3, §4, §5, §6, §7, §8

[4] = test system: HT-29; assay: MTT assay, percent cell survival; settings: Homo sapiens, HT-29, 144 h, HT-29, MTT, six days after drug treatment; read-out: ID50(μM) HT-29
Description: as §3, §1, §2

[5] = test system: U251MG NCl; assay: MTT assay, percent cell survival; settings: Homo sapiens, U-251, 144 h, six days after drug treatment, read-out: ID50(μM) U251MG NCl
Description: as §3, §1, §2

[6] = test system: MCF7; assay: MTT assay, percent cell survival; settings: Homo sapiens, MCF7, 144 h, six days after drug treatment, read-out: ID50(μM) MCF7
Description: as §3, §1, §2

[7] = test system: PC-3; assay: MTT assay, percent cell survival; settings: Homo sapiens, PC-3, 144 h, PC-3, MTT, six days after drug treatment; read-out: ID50(μM) PC-3
Description: as §3, §1, §2

Row | Compound | EC50 [2] | IC50 [4] | IC50 [5] | IC50 [6] | further results
1 | CCNCCCNCC1CCC1CNCCCNCC (stereo not drawn) [SL-11044] | – | – | – | – | IC50 [1]: 0.3 µM
2 | CCNCCCNCC1CC1CNCCCNCC (stereo not drawn) [SL-11038] | 1.34 µM | – | – | – | –
3 | CCNCCCNC1CC1NCCCNCC (stereo not drawn) [SL-11027] | – | – | – | – | inhibition of cell growth ([3]; 10 μM dose): marked inhibition of cell growth
4 | CCNCCCNCC1CCC1CNCCCNCC (stereo not drawn) [SL-11043] | 1.64 µM | 1.5 µM | 0.1 µM | 25.5 µM | –
5 | CCNCCCNC1CCC1NCCCNCC (stereo not drawn) [SL-11034] | – | – | – | – | inhibition of cell growth ([3]; 40 μM dose): marked inhibition of cell growth
6 | CCNCCCNCC1CC1CNCCCNCC (stereo not drawn) [SL-11037] | – | 1.6 µM | 0.1 µM | > 31.2 µM | IC50 [7]: 7.4 µM
